This note sets out measurements from ChEMBL document CHEMBL1153102, “Synthesis and antiproliferative activity of pyrrolo[3,2-b]pyridine derivatives against melanoma” (Bioorg Med Chem Lett, 2010).

The nature of test [1]: Cytotoxicity against human A375P cells by MTT assay. The format is functional, cell-based. On the technique in general: Tetrazolium dyes change colour on reduction, which living cells bring about.
Test [2] has as its system HS27. Description: Cytotoxicity against human HS27 cells by MTT assay. It is filed as cell-based.

As usually defined, the IC50 is the concentration needed to halve the response being measured. A low value points to inhibition by little substance. Consider `NC(=O)c1ccc2c(ccn2-c2ccc(NC(=O)Nc3cccc(Cl)c3Cl)cc2)n1`, for which the IC50 in test [1] turned out to be 4.6 µM; in test [2], 9.8 µM. Take `O=C(Nc1ccc(-n2ccc3nc(C(=O)NCc4ccccc4)ccc32)cc1)c1cccc(C(F)(F)F)c1`: the values for the IC50 in test [1] and in test [2] were 3 µM and over 10 µM, respectively. On to `COC(=O)c1ccc2c(ccn2-c2ccc(NC(=O)Nc3ccc(Cl)c(C(F)(F)F)c3)cc2)n1`, for which the IC50 in test [1] was 3.6 µM; in test [2] it was 8.2 µM. For `COC(=O)c1ccc2c(ccn2-c2ccc(NC(=O)c3cccc(C(F)(F)F)c3)cc2)n1`, the IC50 in test [1] stood at 9.5 µM; in test [2], 9.8 µM.

Consider `COC(=O)c1ccc2c(ccn2-c2cccc(NC(=O)c3cccc(C(F)(F)F)c3)c2)n1`, for which the IC50 in test [1] and in test [2] was over 10 µM each time. In the case of `NC(=O)c1ccc2c(ccn2-c2ccc(NC(=O)c3ccc(Cl)c(C(F)(F)F)c3)cc2)n1`, the IC50 in test [1] was 8.9 µM; in test [2] it was over 10 µM. Take `O=C(Nc1ccc(-n2ccc3nc(C(=O)NCc4ccccc4)ccc32)cc1)Nc1cccc(Cl)c1Cl`: the IC50 in test [1] and in test [2] was over 10 µM in each case. `CNC(=O)c1cc(Oc2ccc(NC(=O)Nc3ccc(Cl)c(C(F)(F)F)c3)cc2)ccn1` [SORAFENIB] returned a 50% inhibitory concentration (IC50) in test [1] of 5.6 µM. For the compound `O=C(Nc1ccc(-n2ccc3nc(C(=O)NCc4ccccc4)ccc32)cc1)Nc1ccc(Cl)c(C(F)(F)F)c1`, the IC50 was 1.1 µM in test [1] and 3 µM in test [2]. On the same counts, the results for `COC(=O)c1ccc2c(ccn2-c2ccc(NC(=O)c3cc(N4CCOCC4)cc(C(F)(F)F)c3)cc2)n1` are over 10 µM and over 10 µM. Regarding `COC(=O)c1ccc2c(ccn2-c2cccc(NC(=O)Nc3cccc(C(F)(F)F)c3)c2)n1`, the IC50 in test [1] and in test [2] was over 10 µM each time. `COC(=O)c1ccc2c(ccn2-c2cccc(NC(=O)Nc3ccc(Cl)c(C(F)(F)F)c3)c2)n1`: the IC50 in test [1] is 9.5 µM; in test [2], over 10 µM.

As for `O=C(Nc1ccc(-n2ccc3nc(C(=O)NCc4ccccc4)ccc32)cc1)c1ccc(Cl)c(C(F)(F)F)c1`, the IC50 is 0.7 µM in test [1] and 1.5 µM in test [2]. The matching figures for `COC(=O)c1ccc2c(ccn2-c2ccc(NC(=O)Nc3ccc(Cl)c(Cl)c3)cc2)n1`: 3.8 µM and 2.8 µM. On the same counts, the results for `COC(=O)c1ccc2c(ccn2-c2cccc(NC(=O)c3ccc(Cl)c(C(F)(F)F)c3)c2)n1` are over 10 µM and over 10 µM. Take `O=C(Nc1ccc(-n2ccc3nc(C(=O)NCc4ccccc4)ccc32)cc1)Nc1cccc(C(F)(F)F)c1`: the IC50 in test [1] was 7.9 µM; in test [2], over 10 µM.

Turning to `O=C(Nc1ccc(-n2ccc3nc(C(=O)NCc4ccccc4)ccc32)cc1)c1ccc(N2CCOCC2)c(C(F)(F)F)c1`, the IC50 in test [1] worked out at 0.9 µM; in test [2], 2.6 µM. The matching figures for `NC(=O)c1ccc2c(ccn2-c2ccc(NC(=O)Nc3ccc(Cl)c(Cl)c3)cc2)n1`: 3.2 µM and 6.6 µM.

For the compound `O=C(Nc1ccc(-n2ccc3nc(C(=O)NCc4ccccc4)ccc32)cc1)c1cc(N2CCOCC2)cc(C(F)(F)F)c1`, the IC50 in test [1] and in test [2] was over 10 µM each time. In the case of `COC(=O)c1ccc2c(ccn2-c2ccc(NC(=O)c3ccc(N4CCOCC4)c(C(F)(F)F)c3)cc2)n1`, the IC50 in test [1] is 9.8 µM; in test [2], over 10 µM. On the same counts, the results for `COC(=O)c1ccc2c(ccn2-c2ccc(NC(=O)c3ccc(Cl)c(C(F)(F)F)c3)cc2)n1` are 3 µM and 2.9 µM. On the same counts, the results for `NC(=O)c1ccc2c(ccn2-c2ccc(NC(=O)c3cccc(C(F)(F)F)c3)cc2)n1` are over 10 µM and over 10 µM. `COC(=O)c1ccc2c(ccn2-c2ccc(NC(=O)Nc3cccc(Cl)c3Cl)cc2)n1`: the IC50 in test [1] was 6.4 µM; in test [2], over 10 µM. With `NC(=O)c1ccc2c(ccn2-c2ccc(NC(=O)Nc3ccc(Cl)c(C(F)(F)F)c3)cc2)n1`, the half-inhibitory concentration (IC50) is 9.9 µM in test [1] and over 10 µM in test [2].
